By IC50 is commonly meant the concentration needed to halve the response being measured.

Drawing on patent publication US20090099167A1, “Organic compounds” (Novartis Institutes for Biomedical Research, priority 2004, published 2009), this text covers IC50 for 14 compounds.

The target of one test is T1, human Flt-3 (Homo sapiens, UniProt P36888).
T1 construct: expressing the amino acid region amino acids 563-993 of the cytoplasmic kinase domain of human Flt-3; made in house; host or cells: Sf9 (baculovirus)
T1 sequence (P36888 563-993): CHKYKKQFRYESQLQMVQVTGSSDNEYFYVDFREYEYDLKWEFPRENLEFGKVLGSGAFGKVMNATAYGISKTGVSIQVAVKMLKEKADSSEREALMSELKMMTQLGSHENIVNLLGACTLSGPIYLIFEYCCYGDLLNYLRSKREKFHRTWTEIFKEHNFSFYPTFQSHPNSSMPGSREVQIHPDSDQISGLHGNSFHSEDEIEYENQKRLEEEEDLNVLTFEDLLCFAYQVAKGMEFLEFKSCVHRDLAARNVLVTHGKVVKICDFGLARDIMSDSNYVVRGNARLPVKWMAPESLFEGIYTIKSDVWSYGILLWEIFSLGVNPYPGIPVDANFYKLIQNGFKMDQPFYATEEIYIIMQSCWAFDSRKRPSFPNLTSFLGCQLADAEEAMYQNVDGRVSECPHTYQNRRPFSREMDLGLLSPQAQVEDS
Description: Flt3 kinase inhibition, GST-Flt-3, 33P incorporation into poly(Glu,Tyr). Format: biochemical. Conditions: Table 4; read-out: Flt-3, activity (IC50 for kinase inhibition). Here is the method: The compounds to be tested are then diluted in culture medium (without FCS, with 0.1% bovine serum albumin) and added to the cells. (Controls comprise medium without test compounds). After two hours' incubation at 37° C., recombinant VEGF is added; the final VEGF concentration is 20 ng/ml). After a further five minutes incubation at 37° C., the cells are washed twice with ice-cold PBS (phosphate-buffered saline) and immediately lysed in 100 μl lysis buffer per well. The lysates are then centrifuged to remove the cell nuclei, and the protein concentrations of the supernatants are determined using a commercial protein assay (BIORAD). The lysates can then either be immediately used or, if necessary, stored at −20° C. A sandwich ELISA is carried out to measure the VEGF-R2 phosphorylation: a monoclonal antibody to VEGF-R2 (for example Mab 1495.12.14; ProQinase, Freiburg, Germany) is immobilized on black ELISA plates (OptiPlate™ HTRF-96 from Packard). The plates are then washed and the remaining free protein-binding sites are saturated with 3% TopBlock® (Juro, Cat. # TB232010) in phosphate buffered saline with Tween 20® (polyoxyethylen(20)-sorbitane monolaurate, ICI/Uniquema) (PBST). The cell lysates (20 μg protein per well) are then incubated in these plates overnight at 4° C. together with an antiphosphotyrosine antibody coupled with alkaline phosphatase (PY20:AP from Zymed). […] The luminescence is measured in a Packard Top Count Microplate Scintillation Counter. The difference between the signal of the positive control (stimulated with VEGF) and that of the negative control (not stimulated with VEGF) corresponds to VEGF-induced VEGF-R2 phosphorylation (=100%). The activity of the tested substances is calculated as percent inhibition of VEGF-induced VEGF-R2 phosphorylation, wherein the concentration of substance that induces half the maximum inhibition is defined as the IC50 (inhibitory dose for 50% inhibition). […] Flt3 kinase inhibition is determined as follows: The baculovirus donor vector pFbacG01 (GIBCO) is used to generate a recombinant baculovirus expressing the amino acid region amino acids 563-993 of the cytoplasmic kinase domain of human Flt-3. The coding sequence for the cytoplasmic domain of Flt-3 is amplified by PCR from human c-DNA libraries (Clontech). The amplified DNA fragments and the pFbacG01 vector are made compatible for ligation by digestion with BamH1 and HindIII. Ligation of these DNA fragments results in the baculovirus donor plasmid Flt-3(1.1). The production of the viruses, the expression of proteins in Sf9 cells and the purification of the GST-fused proteins are performed as follows: Production of virus: Transfer vector (pFbacG01-Flt-3) containing the Flt-3 kinase domain is transfected into the DH10Bac cell line (GIBCO) and the transfected cells are plated on selective agar plates. Colonies without insertion of the fusion sequence into the viral genome (carried by the bacteria) are blue. Single white colonies are picked and viral DNA (bacmid) is isolated from the bacteria by standard plasmid purification procedures. Sf9 or Sf21 cells (American Type Culture Collection) are then transfected in flasks with the viral DNA using Cellfectin reagent. Determination of small scale protein expression in Sf9 cells: Virus containing media is collected from the transfected cell culture and used for infection to increase its titre. Virus containing media obtained after two rounds of infection is used for large-scale protein expression. For large-scale protein expression 100 cm^2 round tissue culture plates are seeded with 5×10^7 cells/plate and infected with 1 mL of virus-containing media (approx. 5 MOIs). After 3 days the cells are scraped off the plate and centrifuged at 500 rpm for 5 min. Cell pellets from 10-20, 100 cm^2 plates, are resuspended in 50 mL of ice-cold lysis buffer (25 mMTris-HCl, pH 7.5, 2 mM EDTA, 1% NP-40, 1 mM DTT, 1 mM PMSF). The cells are stirred on ice for 15 min and then centrifuged at 5000 rpms for 20 min. […]
As to `CN1CCN(c2cccc(-c3cnn4c(N)c(-c5ccc(O)cc5)cnc34)c2)CC1` [Example 39, 4-{7-Amino-3-[3-(4-methyl-piperazin-1-yl)-phenyl]-pyrazolo[1,5-a]pyrimidin-6-yl}-phenol], the IC50 was < 10 µM.

The test is the same for the next values; noted with them: Table 5; read-out: Flt-3, IC50 class.
In the case of `Cc1nc2c(-c3cccc(N4CCN(C)CC4)c3)cnn2c(N)c1-c1cccc(Cl)c1` [Example 72, 6-(3-Chloro-phenyl)-5-methyl-3-[3-(4-methyl-piperazin-1-yl)-phenyl]-pyrazolo[1,5-a]pyrimidin-7-ylamine], the IC50 was > 10 µM.
As to `Cc1nc2c(-c3ccc(N4CCN(C)CC4)cc3)cnn2c(N)c1-c1cccc(Cl)c1` [Example 73, 6-(3-Chloro-phenyl)-5-methyl-3-[4-(4-methyl-piperazin-1-yl)-phenyl]-pyrazolo[1,5-a]pyrimidin-7-ylamine], the IC50 was > 10 µM.
As to `COc1cc(N2CCN(C)CC2)ccc1-c1cnn2c(N)c(-c3cccc(O)c3)cnc12` [Example 76, 3-{7-Amino-3-[2-methoxy-4-(4-methyl-piperazin-1-yl)-phenyl]-pyrazolo[1,5-a]pyrimidin-6-yl}-phenol], the IC50 is < 1 µM.
Consider `CN1CCN(c2ccc(-c3cnn4c(N)c(-c5ccccc5Cl)cnc34)cc2)CC1` [Example 77, 6-(2-Chloro-phenyl)-3-[4-(4-methyl-piperazin-1-yl)-phenyl]-pyrazolo[1,5-a]pyrimidin-7-ylamine], for which the IC50 is < 1 µM.
For the compound `CN1CCN(c2cccc(-c3cnn4c(N)c(-c5ccccc5Cl)cnc34)c2)CC1` [Example 78, 6-(2-Chloro-phenyl)-3-[3-(4-methyl-piperazin-1-yl)-phenyl]-pyrazolo[1,5-a]pyrimidin-7-ylamine], the IC50 is < 1 µM.
Turning to `Cc1nc2c(-c3ccc(N4CCN(C)CC4)cc3)cnn2c(N)c1-c1ccc(F)cc1` [Example 79, 6-(4-Fluoro-phenyl)-5-methyl-3-[4-(4-methyl-piperazin-1-yl)-phenyl]-pyrazolo[1,5-a]pyrimidin-7-ylamine], the IC50 was > 10 µM.
Turning to `Cc1nc2c(-c3cccc(N4CCN(C)CC4)c3)cnn2c(N)c1-c1ccc(F)cc1` [Example 80, 6-(4-Fluoro-phenyl)-5-methyl-3-[3-(4-methyl-piperazin-1-yl)-phenyl]-pyrazolo[1,5-a]pyrimidin-7-ylamine], the IC50 lay in the range of 1 to 10 µM.
On the same count and under the same terms, under `Cc1nc2c(-c3cccc(N4CCN(C5CCN(C)CC5)CC4)c3)cnn2c(N)c1-c1cccc(Cl)c1` [Example 81, 6-(3-Chloro-phenyl)-5-methyl-3-{3-[4-(1-methyl-piperidin-4-yl)-piperazin-1-yl]-phenyl}-pyrazolo[1,5-a]pyrimidin-7-ylamine] stands > 10 µM.
On the same count and under the same terms, under `Cc1nc2c(-c3cccc(N4CCN(C)CC4)c3)cnn2c(N)c1-c1ccc(F)c(Cl)c1` [Example 82, 6-(3-Chloro-4-fluoro-phenyl)-5-methyl-3-[3-(4-methyl-piperazin-1-yl)-phenyl]pyrazolo[1,5-a]pyrimidin-7-ylamine] stands > 10 µM; under `Cc1nc2c(-c3ccc(N4CCN(C)CC4)cc3)cnn2c(N)c1-c1ccc(F)c(Cl)c1` [Example 83, 6-(3-Chloro-4-fluoro-phenyl)-5-methyl-3-[4-(4-methyl-piperazin-1-yl)-phenyl]-pyrazolo[1,5-a]pyrimidin-7-ylamine], > 10 µM; under `Cc1nc2c(-c3cccc(N4CCN(C)CC4)c3)cnn2c(N)c1-c1cccc(Br)c1` [Example 84, 6-(3-Bromo-phenyl)-5-methyl-3-[3-(4-methyl-piperazin-1-yl)-phenyl]-pyrazolo[1,5-a]pyrimidin-7-ylamine], > 10 µM.
Regarding `CN1CCN(c2cccc(-c3cnn4c(N)c(Cc5cccc(Br)c5)cnc34)c2)CC1` [Example 85, 6-(3-Bromo-benzyl)-3-[3-(4-methyl-piperazin-1-yl)-phenyl]pyrazolo[1,5-a]pyrimidin-7-ylamine], the concentration for half-maximal inhibition (IC50) was > 10 µM.
Still for that read-out and setting: the value for `CN1CCN(c2cccc(-c3cnn4c(N)c(-c5cccc(Br)c5)cnc34)c2)CC1` [Example 86, 6-(3-Bromo-phenyl)-3-[3-(4-methyl-piperazin-1-yl)-phenyl]-pyrazolo[1,5-a]pyrimidin-7-ylamine] was > 10 µM.
